Experimental data: US6458822B2, “2-oxo-imidazolidine-4-carboxylic acid hydroxamide compounds that inhibit matrix metalloproteinases” (Pfizer Inc., priority 2000, dated 2002)

**Q.** For `COc1ccc(CN2C[C@H](C(=O)NO)NC2=O)cc1` [Example 4, (4R)-1-(4-Methoxybenzyl)-2-oxo-imidazolidine-4-carboxylic Acid Hydroxyamide], which melting point is on record?
**A.** 130 to 133 °C
